Experimental data taken from US8058269B2, “Oxindole derivatives” (Hoffman-La Roche Inc., priority 2006, dated 2011).

Biological target: interaction between p53 and MDM2 proteins (Homo sapiens, UniProt Q00987)
Assay: HTRF assay of inhibition of the p53-MDM2 interaction (GST-MDM2 / biotinylated p53 peptide)
Format: binding
Details: recombinant GST-tagged MDM2 and biotinylated p53 peptide, 0.02% BSA
Protocol: In a […], the ability of the compounds to inhibit the interaction between p53 and MDM2 proteins was measured. The ability of the compounds to inhibit the interaction between p53 and MDM2 proteins was measured by an HTRF (homogeneous time-resolved fluorescence) assay in which recombinant GST-tagged MDM2 binds to a peptide that resembles the MDM2-interacting region of p53 (Lane et al.). Binding of GST-MDM2 protein and p53-peptide (biotinylated on its N-terminal end) is registered by the FRET (fluorescence resonance energy transfer) between Europium (Eu)-labeled anti-GST antibody and streptavidin-conjugated Allophycocyanin (APC). […]

Sequence of interaction between p53 and MDM2 proteins (Q00987 whole entry): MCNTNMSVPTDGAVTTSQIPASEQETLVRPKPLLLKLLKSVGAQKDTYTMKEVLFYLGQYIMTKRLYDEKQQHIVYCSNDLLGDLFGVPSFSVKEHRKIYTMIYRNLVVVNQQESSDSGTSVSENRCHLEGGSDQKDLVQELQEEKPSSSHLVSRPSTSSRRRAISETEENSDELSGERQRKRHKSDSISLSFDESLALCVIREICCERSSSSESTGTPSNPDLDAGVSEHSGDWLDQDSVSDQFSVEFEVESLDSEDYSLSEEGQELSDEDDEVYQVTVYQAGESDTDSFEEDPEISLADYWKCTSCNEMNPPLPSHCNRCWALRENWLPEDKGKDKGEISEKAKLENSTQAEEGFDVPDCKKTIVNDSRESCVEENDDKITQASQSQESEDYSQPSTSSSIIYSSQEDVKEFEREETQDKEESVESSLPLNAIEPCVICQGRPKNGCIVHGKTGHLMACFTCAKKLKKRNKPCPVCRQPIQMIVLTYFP

Row | IC50 [nM] | SMILES
1 | 3.73 | O=C1Nc2cc(Cl)ccc2C1(Cc1cccc(Cl)c1)Nc1ccc(Br)cc1F (racemic) [Example 11, rac-3-(4-bromo-2-fluoro-phenylamino)-6-chloro-3-(3-chloro-benzyl)-1,3-dihydro-indol-2-one]
2 | 2.56 | O=C1Nc2cc(Cl)ccc2C1(Cc1cccc(Cl)c1)Nc1cccc(OC(F)F)c1 (racemic) [Example 19, rac-6-chloro-3-(3-chloro-benzyl)-3-(3-difluoromethoxy-phenylamino)-1,3-dihydro-indol-2-one]
3 | 2.54 | O=C1Nc2cc(Cl)ccc2C1(Cc1cccc(Cl)c1)NC1CCC1 (racemic) [Example 49, rac-6-chloro-3-(3-chloro-benzyl)-3-cyclobutylamino-1,3-dihydro-indol-2-one]
4 | 3.68 | O=C1Nc2cc(Cl)ccc2C1(Cc1cccc(Cl)c1)N1CCCC(O)C1 (racemic) [Example 62, rac-6-chloro-3-(3-chloro-benzyl)-3-(3-hydroxy-piperidin-1-yl)-1,3-dihydro-indol-2-one]
